The values below are quoted from earlier work in patent US20090193593A1, “METHOD FOR REFRESHING FABRIC ARTICLES” (priority 2008, published 2009).

Where a name gives a salt, the structure may show the parent alone.

With `OCCOc1ccccc1` [2-phenoxyethanol], the Solubility in water result is given as “about 2.67%”. As to `OCCc1ccccc1` [2-phenylethanol], the Solubility in water entry was “about 2%”. Consider `OCc1ccccc1` [benzyl alcohol], for which the Solubility in water result was “about 4%”. As to `[H]/N=C(\N/C(=N/[H])NCCCCCCNC(=N)NC(=N)Nc1ccc(Cl)cc1)Nc1ccc(Cl)cc1` [chlorhexidine diacetate salt, 1,1′-hexamethylene bis(5-(p-chlorophenyl)biguanide), reference compound], the Solubility in water result is “about 1.8%”.

For the compound `[H]/N=C(\N/C(=N/[H])NCCCCCCNC(=N)NC(=N)Nc1ccc(Cl)cc1)Nc1ccc(Cl)cc1` [chlorhexidine digluconate salt, 1,1′-hexamethylene bis(5-(p-chlorophenyl)biguanide), reference compound], the Solubility in water result is recorded as “about 70%”.
